Source: patent publication US8815535B2, “Disk diffusion assay for oritavancin” (The Medicines Company, priority 2011, dated 2014)
Several values for one entry are separate records, joined by “and”; a condition that tells them apart may be missing. Equal values may be shown once. Read-outs that look alike come from different tables or passages of the source.

System: MSSA ATCC 25923
Assay: Disk diffusion assay (zone of inhibition)
Type: cell-based, Staphylococcus aureus
Conditions: for Average zone diameter: disks from 18 mg/ml oritavancin in 5% P80, 3-hour prediffusion; for zone of inhibition at 360 µg/disc / zone of inhibition at 9000 µg/mL / zone of inhibition at 50 µg/disc / zone of inhibition at 45 µg/disc / zone of inhibition at 90 µg/disc / zone of inhibition at 180 µg/disc: Staphylococcus aureus; for zone of inhibition at 9000 µg/mL: read-out: Inhibition zone diameter, ATCC 25923; for zone of inhibition at 50 µg/disc: read-out: Inhibition zone diameter, MSSA ATCC 25923, 50 μg oritavancin, dried approx. 3 hours, estimate of diameter; for zone of inhibition at 45 µg/disc: 45 μg oritavancin in 0.002% P80; for zone of inhibition at 90 µg/disc: 90 μg oritavancin in 0.002% P80; for zone of inhibition at 180 µg/disc: 180 μg oritavancin in 0.002% P80
Excerpt: The study was designed to identify conditions that improve oritavancin diffusion in agar and consequently yield a zone diameter ≧15 mm for the CLSI quality control strain MSSA ATCC 25923. Excipients that increased the disk diffusion of oritavancin in agar relative to disks containing only oritavancin were identified and selected for further study. […] A prediffusion step at room temperature was introduced to maximize oritavancin diffusion prior to initiation of bacterial growth. In this step, the antimicrobial disks were placed on agar plates seeded with a bacterial isolate and incubated at room temperature for 3 hours. Plates were then incubated overnight at 37° C. Zone diameters around the disks in which bacterial growth was inhibited were measured with a ruler and reported in millimeters.
Ethanol-sterilized Whatman paper disks (6 mm diameter) were allowed to dry then impregnated with 20 microliters of oritavancin solution containing total amounts ranging from 90 to 360 micrograms. Disks were allowed to dry at room temperature for various times prior to use.
Bacterial suspensions were prepared and adjusted to an optical density of 0.1 at 600 nm. […] The plate was swabbed a second time, perpendicular to the orientation of the first swab. To assess the impact of prediffusion on diameter of inhibition zones, two disks were immediately placed on one half of the plate and the plate was incubated for 3 hours at room temperature. After 3 hours, two additional disks were placed on the other half of the plate then the plate was incubated overnight at 37° C. Zone diameters were measured with a ruler and reported in millimeters. […]
Oritavancin powder was dissolved in freshly-prepared solutions of the indicated excipients at concentrations of 0.625, 1.25, 2.5, 5, and 10 mg/ml (adjusted for potency based on lot 875561L00 purity of 83.1%) by vortexing for a minimum of 5 minutes. Oritavancin solutions in the various excipients, while not visually clear, were free from any apparent particulates as assessed visually. Sterile Oxoid blank disks were impregnated with 20 μl of these oritavancin solutions, resulting in oritavancin disk loads ranging from 12.5 to 200 μg. Unless indicated otherwise, disks were allowed to dry overnight at room temperature prior to use.
[…] Swabbing was continued at a right angle and then at an oblique angle to the first and second swabs. Disks were placed upon the seeded plates with sterile forceps. Plates were then incubated overnight at 37° C. and inhibition zone diameters were measured with a ruler and reported in millimeters.

[1] = read-out: Average zone diameter, MSSA ATCC 25923, CAMHA containing 1% P80, no prediffusion
[2] = read-out: Average zone diameter, MSSA ATCC 25923, CAMHA containing 1% P80, prediffusion

CN[C@H](CC(C)C)C(=O)N[C@H]1C(=O)N[C@@H](CC(N)=O)C(=O)N[C@H]2C(=O)N[C@H]3C(=O)N[C@H](C(=O)N[C@H](C(=O)O)c4cc(O)cc(O)c4-c4cc3ccc4O)[C@H](O[C@H]3C[C@](C)(N)[C@@H](O)[C@H](C)O3)c3ccc(c(Cl)c3)Oc3cc2cc(c3O[C@@H]2O[C@H](CO)[C@@H](O)[C@H](O)[C@H]2O[C@H]2C[C@](C)(NCc3ccc(-c4ccc(Cl)cc4)cc3)[C@@H](O)[C@H](C)O2)Oc2ccc(cc2Cl)[C@H]1O [oritavancin, N-(4-(4-chlorophenyl)benzyl)A82846B]
Inhibition zone diameter (ATCC 25923, 25 μg (20 μl of 1.25 mg/ml) in 4% P80/Span 80 (1:1), calcium alginate swab, dried overnight): 22 mm and 20 mm | Inhibition zone diameter (ATCC 25923, 20 μl of 9 mg/ml oritavancin in 2.5% P80, prediffusion at 4° C. 3 h, duplicate determinations): 19 mm | Inhibition zone diameter (ATCC 25923, 20 μl of 9 mg/ml oritavancin in 2.5% P80, prediffusion at 4° C. 6 h, duplicate determinations): 22 mm | Inhibition zone diameter (ATCC 25923, 20 μl of 9 mg/ml oritavancin in 2.5% P80, prediffusion at room temperature 3 h, duplicate determinations): 17 mm | Inhibition zone diameter (ATCC 25923, 20 μl of 9 mg/ml oritavancin in 2.5% P80, prediffusion at room temperature 6 h, duplicate determinations): 18.5 mm | Inhibition zone diameter (ATCC 25923, Oxoid disks, 20 μl of 18 mg/ml oritavancin in 5% P80, stored 30 days at room temperature, prediffusion 6 hours at 4° C.): 17.5 mm | Average zone diameter (ATCC 25923, stored 1 day at room temperature): 15.0 mm | Average zone diameter (ATCC 25923, stored 4 days at room temperature): 15.8 mm | Average zone diameter (ATCC 25923, stored 6 days at room temperature): 16.3 mm | Average zone diameter (ATCC 25923, stored 8 days at room temperature): 17.0 mm | Average zone diameter (ATCC 25923, used same day): 14.0 mm | Increase of the area of the zone of clearance by prediffusion (MSSA ATCC 25923, 360 μg oritavancin in 0.002% P80): approximately 24% | Zone diameters (MSSA ATCC 25923, CAMHA containing 1% P80, disks with various concentrations of oritavancin in 0.002% P80, even with 3 h prediffusion): < 15 mm | Inhibition zone diameter (MSSA ATCC 25923, Oxoid disk, 180 μg, 5% P80, stored 7 days, prediffusion 3 h at 4° C., duplicates): 12.5 mm | Inhibition zone diameter (MSSA ATCC 25923, Oxoid disk, 270 μg, 5% P80, stored 7 days, prediffusion 3 h at 4° C., duplicates): 13.5 mm | Inhibition zone diameter (MSSA ATCC 25923, Whatman #5 disk, 180 μg, 2.5% P80, stored 7 days, prediffusion 3 h at 4° C., duplicates): 16 mm | Inhibition zone diameter (MSSA ATCC 25923, Whatman #5 disk, 360 μg, 5% P80, stored 7 days, prediffusion 3 h at 4° C., duplicates): 16.5 mm | Zone diameter (MSSA quality control strain ATCC 25923, different combinations of the alterations to the traditional assay): up to 24 mm | zone of inhibition at 360 µg/disc (3 h, read-out: Average zone diameter, ATCC 25923, 360 μg oritavancin, excipient 10% HPCD, disks made same day, 3 h prediffusion, average of 2 disks): 17.5 mm | zone of inhibition at 9000 µg/mL (3 h, 20 μl of 9 mg/ml oritavancin in 2.5% P80, prediffusion at 4° C. 3 h, duplicate determinations): 18 mm | zone of inhibition at 9000 µg/mL (3 h, 20 μl of 9 mg/ml oritavancin in 2.5% P80, prediffusion at room temperature 3 h, duplicate determinations): 16.5 mm | zone of inhibition at 50 µg/disc (3 h, 0.5% P80/Span 80 (35:65) in water): 10 mm | zone of inhibition at 50 µg/disc (3 h, 1% P80/Span 80 (35:65) in water): 15 mm | zone of inhibition at 50 µg/disc (3 h, 2% P80/Span 80 (35:65) in water): 20 mm | zone of inhibition at 50 µg/disc (3 h, 4% P80/Span 80 (35:65) in water): 28 mm | zone of inhibition at 9000 µg/mL (6 h, 20 μl of 9 mg/ml oritavancin in 2.5% P80, prediffusion at 4° C. 6 h, duplicate determinations): 21 mm | zone of inhibition at 9000 µg/mL (6 h, 20 μl of 9 mg/ml oritavancin in 2.5% P80, prediffusion at room temperature 6 h, duplicate determinations): 18 mm | zone of inhibition at 360 µg/disc (192 h, read-out: Zone diameter (mm ± SD), ATCC 25923, 360 μg in 5% P80, Experiment 2, disks stored 8 days, no prediffusion): 14.5 mm | zone of inhibition at 360 µg/disc (216 h, read-out: Average zone diameter, MSSA ATCC 25923, 360 μg oritavancin in 0.002% P80, without prediffusion, two disks (FIG. 1A), disks stored 9 days): 10.5 mm | zone of inhibition at 360 µg/disc (216 h, read-out: Average zone diameter, MSSA ATCC 25923, 360 μg oritavancin in 5% P80, with prediffusion (FIG. 1D), disks stored 9 days): 17 mm | zone of inhibition at 360 µg/disc (216 h, read-out: Average zone diameter, MSSA ATCC 25923, 360 μg oritavancin in 5% P80, without prediffusion (FIG. 1B), disks stored 9 days): 14.8 mm | zone of inhibition at 360 µg/disc (336 h, read-out: Zone diameter (mm ± SD), ATCC 25923, 360 μg in 5% P80, Experiment 1, disks stored 14 days, no prediffusion): 15.3 ± 0.4 mm | zone of inhibition at 360 µg/disc (read-out: Average zone diameter, ATCC 25923, 360 μg oritavancin, excipient 5% P80, disks stored 5 days at room temperature, 3 h prediffusion, average of 2 disks): 19 mm | zone of inhibition at 45 µg/disc [1]: 12 mm | zone of inhibition at 45 µg/disc [2]: 12.3 mm | zone of inhibition at 90 µg/disc [1]: 11.8 mm | zone of inhibition at 90 µg/disc [2]: 12.8 mm | zone of inhibition at 180 µg/disc [1]: 12.3 mm | zone of inhibition at 180 µg/disc [2]: 13 mm | zone of inhibition at 360 µg/disc (read-out: Average zone diameter, MSSA ATCC 25923, 360 μg oritavancin in 0.002% P80, CAMHA containing 1% P80, no prediffusion): 12.8 mm | zone of inhibition at 360 µg/disc (read-out: Average zone diameter, MSSA ATCC 25923, 360 μg oritavancin in 0.002% P80, CAMHA containing 1% P80, prediffusion): 12.5 mm
